# Reference: PubChem BioAssay AID1259411 (Chemical Carcinogenesis Research Information System (CCRIS), 2018)
# Calls of active or inactive are those of the source. The rule behind the calls is not given here.
# Tested on: rodent carcinogenicity bioassays, tumor incidence
# Test: CCRIS carcinogenicity studies
# Conditions: Dose: 0
# Method in brief: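 Archive of carcinogenicity, mutagenicity, tumor promotion and tumor inhibition results drawn from journals, NCI reports and other sources, expert-reviewed; covers 1985-2011 and is no longer updated.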
smiles,measurement,setting,value
C[C@@H]1Cc2c(Cl)cc(C(=O)NC(Cc3ccccc3)C(=O)O)c(O)c2C(=O)O1 (stereo partly specified),carcinogen call,"Species: MOUSE, Strain/Sex: ALBINO/MALE,FEMALE, Route: GAVAGE, 0.25 ML OF 50 PPM SOLUTION 2/WK FOR 20 WK (STUDY DURATION: 20 WK), Tumor Site: Type of Lesion: KIDNEY: CARCINOMA",active; positive
same,carcinogen call,"Species: MOUSE, Strain/Sex: CD-1/FEMALE, Route: ORAL, 0.031, 0.125, 0.5% IN DIET FOR 78 WK (STUDY DURATION: 78 WK), 0.031, 0.125, 0.5% IN DIET FOR 78 WK (STUDY DURATION: 78 WK)",inactive; negative
same,carcinogen call,"Species: MOUSE, Strain/Sex: CD-1/MALE, Route: ORAL, 0.031, 0.125, 0.5% IN DIET FOR 78 WK (STUDY DURATION: 78 WK), 0.031, 0.125, 0.5% IN DIET FOR 78 WK (STUDY DURATION: 78 WK)",inactive; negative
same,carcinogen call,"Species: MOUSE, Strain/Sex: DDD/MALE, Route: ORAL, 25 PPM IN DIET FOR 70 WK (STUDY DURATION: 70 WK), Tumor Site: Type of Lesion: KIDNEY: RENAL CELL TUMOR, LIVER: HEPATOMA",active; positive
same,carcinogen call,"Species: MOUSE, Strain/Sex: DDY/MALE, Route: ORAL, 7.05, 17.24, 26.27, 33.16, 35.86, 42.67 MG/MOUSE (TOTAL DOSE) ADMINISTERED AT A DOSE OF 50 PPM IN DIET FOR 0, 5, 10,, 7.05, 17.24, 26.27, 33.16, 35.86, 42.67 MG/MOUSE (TOTAL DOSE) ADMINISTERED AT A DOSE OF 50 PPM IN DIET FOR 0, 5, 10,, Tumor Site: Type of Lesion: LIVER: HEPATOMA, KIDNEY: RENAL CELL TUMOR",active; positive
same,carcinogen call,"Species: MOUSE, Strain/Sex: SWISS/MALE,FEMALE, Route: GAVAGE, 0.25 ML OF A 50 PPM SOLUTION 2/WK FOR 20 WK (STUDY DURATION: 20 WK), Tumor Site: Type of Lesion: KIDNEY: CARCINOMA",active; positive
same,carcinogen call,"Species: RAT, Strain/Sex: DA/FEMALE, Route: GAVAGE, 0.4 MG/KG BW IN SODIUM BICARBONATE 3/WK FOR DURATION OF STUDY (STUDY DURATION: LIFESPAN)",inactive; negative
same,carcinogen call,"Species: RAT, Strain/Sex: DA/MALE, Route: GAVAGE, 0.4 MG/KG BW IN SODIUM BICARBONATE 3/WK FOR DURATION OF STUDY (STUDY DURATION: LIFESPAN), Tumor Site: Type of Lesion: KIDNEY: ADENOCARCINOMA, ADENOMA",active; positive
same,carcinogen call,"Species: RAT, Strain/Sex: F344/FEMALE, Route: GAVAGE, 21, 70, 210 UG/KG IN CORN OIL 5 D/WK FOR 103 WK (STUDY DURATION: 105 WK), 21, 70, 210 UG/KG IN CORN OIL 5 D/WK FOR 103 WK (STUDY DURATION: 105 WK), Tumor Site: Type of Lesion: KIDNEY TUBULE: ADENOMA, CARCINOMA, MAMMARY GLAND: FIBROADENOMA, ADENOMA OR FIBROADENOMA OR ADENOCARCINOMA",active; positive
same,carcinogen call,"Species: RAT, Strain/Sex: F344/MALE, Route: GAVAGE, 21, 70, 210 UG/KG IN CORN OIL 5 D/WK FOR 103 WK (STUDY DURATION: 106 WK), 21, 70, 210 UG/KG IN CORN OIL 5 D/WK FOR 103 WK (STUDY DURATION: 106 WK), Tumor Site: Type of Lesion: KIDNEY TUBULE: ADENOMA, CARCINOMA",active; positive
same,carcinogen call,"Species: RAT, Strain/Sex: LEWIS/FEMALE, Route: GAVAGE, 0.4 MG/KG BW IN SODIUM BICARBONATE 3/WK FOR DURATION OF STUDY (STUDY DURATION: LIFESPAN), Tumor Site: Type of Lesion: KIDNEY: ADENOCARCINOMA",active; positive
same,carcinogen call,"Species: RAT, Strain/Sex: LEWIS/MALE, Route: GAVAGE, 0.4 MG/KG BW IN SODIUM BICARBONATE 3/WK FOR DURATION OF STUDY (STUDY DURATION: LIFESPAN), Tumor Site: Type of Lesion: KIDNEY: ADENOCARCINOMA",active; positive
C1CCOC1,carcinogen call,"Species: MOUSE, Strain/Sex: B6C3F1/FEMALE, Route: INHALATION, 200, 600, 1800 PPM 6HR/D 5 D/WK FOR 105 WK (STUDY DURATION: 105 WK), 200, 600, 1800 PPM 6HR/D 5 D/WK FOR 105 WK (STUDY DURATION: 105 WK), Tumor Site: Type of Lesion: LIVER: ADENOMA OR CARCINOMA",active; positive
same,carcinogen call,"Species: MOUSE, Strain/Sex: B6C3F1/FEMALE, Route: INHALATION, 200, 600, 1800 PPM 6 HR/D 5 D/WK FOR 105 WK (STUDY DURATION: 105 WK), 200, 600, 1800 PPM 6 HR/D 5 D/WK FOR 105 WK (STUDY DURATION: 105 WK), Tumor Site: Type of Lesion: LIVER: HEPATOCELLULAR ADENOMA, HEPATOCELLULAR CARCINOMA",active; positive
same,carcinogen call,"Species: MOUSE, Strain/Sex: B6C3F1/MALE, Route: INHALATION, 200, 600, 1800 PPM 6 HR/D 5 D/WK FOR 105 WK (STUDY DURATION: 105 WK), 200, 600, 1800 PPM 6 HR/D 5 D/WK FOR 105 WK (STUDY DURATION: 105 WK)",inactive; negative
same,carcinogen call,"Species: RAT, Strain/Sex: F344/FEMALE, Route: INHALATION, 200, 600, 1800 PPM 6 HR/D 5 D/WK FOR 105 WK (STUDY DURATION: 105 WK), 200, 600, 1800 PPM 6 HR/D 5 D/WK FOR 105 WK (STUDY DURATION: 105 WK)",inactive; negative
same,carcinogen call,"Species: RAT, Strain/Sex: F344/MALE, Route: INHALATION, 200, 600, 1800 PPM 6 HR/D 5 D/WK FOR 105 WK (STUDY DURATION: 105 WK), 200, 600, 1800 PPM 6 HR/D 5 D/WK FOR 105 WK (STUDY DURATION: 105 WK), Tumor Site: Type of Lesion: KIDNEY: RENAL TUBULE ADENOMA OR CARCINOMA",active; positive
O[C@H]1C=Cc2c(ccc3ncccc23)[C@@H]1O,carcinogen call,"Species: MOUSE, Strain/Sex: CD-1/FEMALE, Route: INTRAPERITONEAL, 5, 10 AND 20 µL OF A 0.05 MOLAR SOLUTION ON DAYS 1, 8 AND 15 OF LIFE RESPECTIVELY (TOTAL DOSE: 1.75 UMOL) (STUDY DURA, 5, 10 AND 20 µL OF A 0.05 MOLAR SOLUTION ON DAYS 1, 8 AND 15 OF LIFE RESPECTIVELY (TOTAL DOSE: 1.75 UMOL) (STUDY DURA",inactive; negative
same,carcinogen call,"Species: MOUSE, Strain/Sex: CD-1/MALE, Route: INTRAPERITONEAL, 5, 10 AND 20 µL OF A 0.05 MOLAR SOLUTION ON DAYS 1, 8 AND 15 OF LIFE RESPECTIVELY (TOTAL DOSE: 1.75 UMOL) (STUDY DURA, 5, 10 AND 20 µL OF A 0.05 MOLAR SOLUTION ON DAYS 1, 8 AND 15 OF LIFE RESPECTIVELY (TOTAL DOSE: 1.75 UMOL) (STUDY DURA",inactive; negative
O=NN1CCCC[C@H]1c1cccnc1,carcinogen call,"Species: MOUSE, Strain/Sex: STRAIN-A/FEMALE, Route: INTRAPERITONEAL, 100 UMOL TOTAL DOSE ADMINISTERED IN SUBDOSES 3/WK FOR 7 WK (STUDY DURATION: 37 WK), Tumor Site: Type of Lesion: LUNG: TUMOR",active; positive
O=S(=O)(O)c1ccc(N=Nc2c(O)ccc3ccccc23)cc1,carcinogen call,"Species: MOUSE, Strain/Sex: SWISS-WEBSTER/FEMALE, Route: DERMAL, 1% IN 0.1 ML DISTILLED WATER 1/WK FOR 18 MO (STUDY DURATION: 18 MO)",inactive; negative
same,carcinogen call,"Species: MOUSE, Strain/Sex: SWISS-WEBSTER/MALE, Route: DERMAL, 1% IN 0.1 ML DISTILLED WATER 1/WK FOR 18 MO (STUDY DURATION: 18 MO)",inactive; negative
C[N+]1(C)CCCCC1,carcinogen call,"Species: Rat, Strain/Sex: Wistar/Female (50/Group), Route: Oral, 17, 141, 370 mg/kg/day of 57.9% mepiquat chloride in diet for 24 mo, study duration 24 mo, 17, 141, 370 mg/kg/day of 57.9% mepiquat chloride in diet for 24 mo, study duration 24 mo",inactive; negative
same,carcinogen call,"Species: Rat, Strain/Sex: Wistar/Male (50/Group), Route: Oral, 13, 105, 269 mg/kg/day of 57.9% mepiquat chloride in diet for 24 mo, study duration 24 mo, 13, 105, 269 mg/kg/day of 57.9% mepiquat chloride in diet for 24 mo, study duration 24 mo",inactive; negative
CN(C)c1ccc(C(=C2C=CC(=[N+](C)C)C=C2)c2c(O)c(S(=O)(=O)[O-])cc3cc(S(=O)(=O)O)ccc23)cc1,carcinogen call,"Species: MOUSE, Strain/Sex: CD-1/FEMALE, Route: ORAL, 0.033, 0.33, 0.66% IN DIET TO PUPS OF PARENTS GIVEN THE SAME DIETARY DOSES FOR 9 WK PRIOR TO MATING. FROM 2 TO 5 WK O, 0.033, 0.33, 0.66% IN DIET TO PUPS OF PARENTS GIVEN THE SAME DIETARY DOSES FOR 9 WK PRIOR TO MATING. FROM 2 TO 5 WK O",inactive; negative
same,carcinogen call,"Species: MOUSE, Strain/Sex: CD-1/MALE, Route: ORAL, 0.033, 0.33, 0.66% IN DIET TO PUPS OF PARENTS GIVEN THE SAME DIETARY DOSES FOR 9 WK PRIOR TO MATING. FROM 2 TO 5 WK O, 0.033, 0.33, 0.66% IN DIET TO PUPS OF PARENTS GIVEN THE SAME DIETARY DOSES FOR 9 WK PRIOR TO MATING. FROM 2 TO 5 WK O",inactive; negative
